Test results: ChEMBL document CHEMBL4418317, “Piperidinyl- and piperazinyl-substituted heteroaromatic carboxamides as modulators of gpr6” (2018)

Target: G-protein coupled receptor 6 (Homo sapiens, UniProt P46095)
Test: Modulator activity at GPR6 receptor (unknown origin) expressed in CHO-K1 cells assessed as inhibition of constitutive cAMP activity incubated for 45 mins by Eu-cAMP tracer based HTRF Ultra cAMP assay
Assay type: functional, cell-based

G-protein coupled receptor 6, sequence (P46095 whole entry): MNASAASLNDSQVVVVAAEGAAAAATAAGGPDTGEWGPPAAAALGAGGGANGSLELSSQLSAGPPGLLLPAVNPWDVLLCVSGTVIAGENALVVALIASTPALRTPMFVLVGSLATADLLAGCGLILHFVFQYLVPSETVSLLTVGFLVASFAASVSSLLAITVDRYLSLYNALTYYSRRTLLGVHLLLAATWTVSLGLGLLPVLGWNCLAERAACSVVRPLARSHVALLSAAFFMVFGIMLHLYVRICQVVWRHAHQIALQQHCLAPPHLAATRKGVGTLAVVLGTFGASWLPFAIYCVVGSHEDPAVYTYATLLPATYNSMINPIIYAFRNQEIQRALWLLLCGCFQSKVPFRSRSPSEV

| EC50 | Compound |
| --- | --- |
| 2000 nM | Cn1cccc(C(=O)Nc2cc(C#N)ccc2N2CCC(Oc3cc(F)cc(F)c3)CC2)c1=O |
| 2000 nM | Cc1nc(C(=O)Nc2cc(C#N)ccc2N2CCC(Oc3ccc(F)cc3F)CC2)no1 |

| Compound | EC50 |
| --- | --- |
| N#Cc1ccc(N2CCC(Oc3ccc(F)cc3F)CC2)c(NC(=O)c2cccn(Cc3ccccc3)c2=O)c1 | 2000 nM |
